Results from US20030087774A1, “Fragrance compositions for the CO2 washing process” (priority 2001, published 2003).

Assay: CO2 wash test of model fragrance A on cotton fabric (supercritical fluid extractor, GC FID)
Assay type: physicochemical
Conditions: for fraction left on fabric: from the wash test of Table 2; for % Left on Fabric: supercritical CO2 43° C., 77 bar, density 0.25 g/ml, cotton fabric
Description: The device used for this experiment was an Hewlett Packard 7680T SFE Supercritical Fluid Extractor. 1 g of cotton fabric was put into a 7 ml Thimble. 0.01 grams of the model fragrance A was applied to the uppermost part of the fabric representing the earliest stage of the CO2 cleaning process.
The CO2 properties used were: density=0.25 g/ml, pressure=77 bar (Pc=73.8 bar), temperature=43° C. These were supercritical as the Critical Temperature for CO2 is 31.1° C.
CO2 was introduced into the thimble and allowed to soak for 2 min. The thimble was flushed with CO2 for 5 min at a flow rate of 2 ml/min. The CO2/fragrance mixture was carried into the trap where the CO2 was evaporated leaving the fragrance on the analytical trap packing being maintained at −30 deg C. The trap was rinsed with Acetone. The fragrance/acetone mixture was analyzed using gas chromatography with flame ionization detection (GC FID).
The results on the GC FID were used to calculate the % of each fragrance ingredient that was retained on the fabric. (90% means that 90% of the fragrance was substantive on the fabric).

Molecule	fraction left on fabric	% Left on Fabric [%]
C[C@@H]1CC[C@H]2C(C)(C)[C@H]3C[C@@]12CC[C@@]3(C)O [Cedrol]	0.839	84
CCCCC/C(C=O)=C/c1ccccc1 [Amyl Cinnamic Aldehyde]	0.83	85
O=c1ccc2ccccc2o1 [Coumarin]	0.945	94
C=CCc1ccc(O)c(OC)c1 [Eugenol]	0.794	79
CCOC(=O)c1ccccc1C(=O)OCC [Diethyl Phthalate]	0.807	81
CC(=O)O[C@]1(C)CC[C@@]23C[C@@H]1C(C)(C)[C@@H]2CC[C@H]3C [Cedryl Acetate]	0.834	83
C=CC(C)CCCC(C)(C)O (centres unmarked) [Dihydro Myrcenol]	0.737	74
CC(=O)OCc1ccccc1 [Benzyl Acetate]	0.799	80
CC(=O)c1c(C)c([N+](=O)[O-])c(C(C)(C)C)c([N+](=O)[O-])c1C [Musk Ketone]	0.905	91
O=C1CCCCCCCCCCCC(=O)OCCO1 [Ethylene Brassylate]	0.928	93
CC(C)=CCC/C(C)=C/CO [Geraniol, Supra]	0.769	77
O=C(OCc1ccccc1)c1ccccc1O [Benzyl Salicylate]	0.908	91
CC(=O)OC(C)(C)Cc1ccccc1 [Dimethyl Benzyl Carbinyl Acetate]	0.689	69

Continued, values first:

fraction left on fabric	% Left on Fabric [%]	Molecule
0.729	73	CC(=O)/C=C/C1C(C)=CCCC1(C)C (stereo not drawn) [Ionone, Alpha]
0.846	85	CC(CC=O)CCCC(C)(C)O (centres unmarked) [Hydroxy Citronellal P]
0.691	69	Terpineol, Pure
–	83	OCCc1ccccc1 [Phenyl Ethyl Alcohol]
0.995	100	C=C1CCC2CC1C2(C)C (stereo not drawn) [Pinene, Beta, beta-Pinene]
0.759	76	CC(C)CCOC(=O)c1ccccc1O [Iso Amyl Salicylate]
0.741	74	CC(=O)O[C@@H]1C[C@H]2CC[C@]1(C)C2(C)C (racemic) [Iso Bornyl Acetate]
0.977	98	C=C(C)[C@H]1CC=C(C)CC1 [Limonene D]
0.698	70	CC(=O)OCCc1ccccc1 [Phenyl Ethyl Acetate]
0.781	78	CC(C=O)Cc1ccc(C(C)(C)C)cc1 (centres unmarked) [Lilial]
0.863	86	CCCCCCC(C=O)=Cc1ccccc1 [Hexyl Cinnamic Aldehyde]
0.969	97	CC(=O)OCC=C(C)C [Prenyl acetate]
0.763	76	CC(C)=CCCC(C)CCO (centres unmarked) [Gitronellol 950, Citronellol 950]
–	74	Methyl Ionone Gamma Coeur
0.989	99	CC1=CCC2CC1C2(C)C (stereo not drawn) [Pinene, Alpha, alpha-Pinene]
0.687	69	CC(=O)OC1CCC(C(C)(C)C)CC1 (centres unmarked) [Oryclon/Vertenex]
